Results taken from PubChem BioAssay AID1645868 (Buhrlage Lab, Dana-Farber Cancer Institute and Novartis …, 2021).
The source made the active and inactive calls.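 How the source made its calls: active means maximal percent inhibition of the deubiquitinase OTUD3 of at least 30% across the tested doses; inactive means the rest.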

What follows are compounds tested against OTU domain-containing protein 3 (Homo sapiens) (UniProt Q5T2D3) (assay: Validation of screening hits, potency titration, in vitro enzymatic, OTU domain-containing protein 3 DUB inhibitors (AID 1645868)). Settings: purified OTUD3, ubiquitin-rhodamine cleavage fluorescence, 2 h.
Sequence of OTU domain-containing protein 3 (Homo sapiens) (Q5T2D3 whole entry, looked up, the tested form may be a part): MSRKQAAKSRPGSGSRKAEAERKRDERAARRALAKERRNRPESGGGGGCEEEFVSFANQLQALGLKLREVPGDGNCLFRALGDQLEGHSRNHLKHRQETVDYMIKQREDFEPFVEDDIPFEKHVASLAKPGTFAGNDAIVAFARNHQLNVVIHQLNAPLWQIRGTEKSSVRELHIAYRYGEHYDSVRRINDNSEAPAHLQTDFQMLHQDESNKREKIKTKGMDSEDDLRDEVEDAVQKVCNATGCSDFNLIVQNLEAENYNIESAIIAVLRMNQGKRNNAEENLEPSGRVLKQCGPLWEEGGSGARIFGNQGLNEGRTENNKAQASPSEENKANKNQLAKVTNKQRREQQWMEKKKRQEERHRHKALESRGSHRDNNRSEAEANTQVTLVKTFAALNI

SMILES | IC50
Cc1ccc2cc3c(nc2n1)CCN(Cc1ccc(F)cc1)C3 | > 50 µM (inactive)
Cc1ccc2nc(NC(=O)C3CCCN3S(=O)(=O)c3ccc4c(c3)OCCO4)sc2c1 (configuration not stated) | > 50 µM (inactive)
COc1ccc(-c2cc3nc([C@H](C)NC(=O)Cc4cccc(F)c4)nn3cn2)cc1 | 15.8 µM
O=C(Nc1ccc2sccc2c1)c1ccc(F)cc1 | > 50 µM (inactive)
CN1C(=O)[C@]23CC4=CC=C[C@H](O)[C@H]4N2C(=O)[C@@]1(CO)SS3 | > 50 µM (inactive)
COc1cccc(N2C(=O)N(CC(=O)NCc3ccc(Cl)cc3)c3ccccc3S2(=O)=O)c1 | 20 µM
CC(C)NC(=O)[C@H](Cc1ccccc1)NC(=O)N1CCn2c1nc1ccccc12 | > 50 µM (inactive)
O=C(Nc1cc(F)c2nc(N3CCCC3)ccc2c1)c1ccco1 | > 50 µM (inactive)
CC(C)NC(=O)Cn1ccn2nc(-c3ccc(Cl)cc3)cc2c1=O | > 50 µM (inactive)
CCc1cc(C(=O)c2ccc(OC)cc2)c(NC(=O)CN2CCCCC2)s1 | > 50 µM (inactive)
CC(C)CC1NC(=O)C2CCCN2C1=O (configuration not stated) | > 50 µM (inactive)
Cc1ccccc1N1C(=O)/C(=C\c2cccn2C)c2ccccc2C1=O | > 50 µM (inactive)
COCC(=O)Nc1cc(F)c2nc(N3CCOCC3)ccc2c1 | > 50 µM (inactive)
CCOC(=O)c1ccc(-n2c(=O)c(C#N)cc3c(=O)n4ccccc4nc32)cc1 | > 50 µM (inactive)
O=C(Nc1ccccc1)c1cn(-c2cc(N3CCCC3)ncn2)cn1 | > 50 µM (inactive)
COc1ccc(CN2CCCC23CCCN(C(=O)CCc2cccnc2)C3)cc1F (configuration not stated) | 49.5 µM
Cc1ccc(NCc2cc3c(C(C)(C)C)nn(-c4ccc(Cl)cc4)c3[nH]c2=O)cc1 | 33.5 µM
CCn1ccc2c(cc(C(=O)Nc3cc(F)ccc3F)n2C)c1=O | > 50 µM (inactive)
Cc1c(C(=O)NCc2cccc(Br)c2)oc2c1-c1[nH]ncc1CC2 | 48.2 µM
COc1cccc(N2CCN(C(=O)C3CCN(c4nc(NC(C)=O)ns4)CC3)CC2)c1 | > 50 µM (inactive)
CCOCCCn1c(SCC(=O)Nc2ccccc2C(F)(F)F)nc2ccccc2c1=O | 19.4 µM
O=C(NC1CC1)c1ccnn1-c1ccc2ccc(-c3ccncc3)cn12 | > 50 µM (inactive)
COc1cc2c(cc1OC)-c1cc(NCc3cc(OC)c(OC)c(OC)c3)nc(=O)n1CC2 | > 50 µM (inactive)

SMILES | IC50
O=C(NCc1cccnc1)C1CCN(c2cnc(N3CCCCCC3)nc2)CC1 | > 50 µM (inactive)
Cc1ccccc1NC(=O)Cn1cncc(-c2nc(-c3ccccc3)cs2)c1=O | > 50 µM (inactive)
Cc1ccc(Cn2cc(-c3noc(-c4ccc[nH]4)n3)nn2)cc1 | 19.8 µM
O=C(Nc1ccc(Br)cn1)c1nc2ccccc2nc1N1CCCCC1 | > 50 µM (inactive)
Fc1ccc(Nc2nc(Nc3cccc(F)c3)nc3nccnc23)cc1 | > 50 µM (inactive)
CSc1cccc(NC(=O)CCc2ccc3nc(NC(C)=O)sc3c2)c1 | > 50 µM (inactive)
COc1ccc(-c2cc(C(C)=O)c(C)n2CCC(=O)Nc2ccc(OC)cc2OC)cc1 | > 50 µM (inactive)
COc1ccc(CNC(=O)CN2C(=O)CC(c3ccccc3)=Nc3ccccc32)cc1 | 16.4 µM
Cc1cc(O)cc2cc3c(c(O)c12)C(=O)CCC3O (configuration not stated) | > 50 µM (inactive)
COc1ccc(NC(=O)COc2cc(CSc3ccccc3)ncc2OC)cc1 | > 50 µM (inactive)
O=C(/C=C/c1ccccc1)N1CCN(C2=NS(=O)(=O)c3ccccc32)CC1 | > 50 µM (inactive)
Oc1ccc(Br)cc1CNc1ccc(F)cc1 | > 50 µM (inactive)
COc1c2nc3ccccc3oc-2cc(=O)c1OC | > 50 µM (inactive)
COc1ccc(CCC(=O)Nc2ccc3c(c2)Sc2ncccc2C(=O)N3C)cc1 | > 50 µM (inactive)
CS(=O)(=O)n1nc(NCc2ccc(F)cc2)nc1NCc1ccc(F)cc1 | > 50 µM (inactive)
CN(c1ccccc1)c1nc(=O)n(CC(=O)Nc2ccc3c(c2)OCCO3)c2ccccc12 | > 50 µM (inactive)
CCOC(=O)c1sc2nc(CC(=O)OC)nc(NCc3ccco3)c2c1C | > 50 µM (inactive)
O=C(NCc1ccncc1)C1CCN(c2cncnc2N2CCCCC2)CC1 | > 50 µM (inactive)
CC(=O)c1cccc(NC(=O)c2ccc(-c3csc(C)n3)cc2)c1 | > 50 µM (inactive)
Cc1nc(Nc2ncc(C)s2)cc(C2CN(C(=O)Cc3ccccc3)CCO2)n1 (configuration not stated) | > 50 µM (inactive)
O=C(CSc1nncc2ccccc12)Nc1ccc2c(c1)OCO2 | > 50 µM (inactive)
O=c1ccc(-c2noc(Cc3c(F)cccc3Cl)n2)c[nH]1 | > 50 µM (inactive)
Cc1cc(O)c2c3c(c(O)cc2c1)C(=O)c1c(O)cccc1C3=O | 4.84 µM

SMILES | IC50
Cc1c(-c2nn3c(-c4ccco4)nnc3s2)cccc1[N+](=O)[O-] | > 5 µM (inactive)
C=C(NC(=O)C(=C)NC(=O)c1csc(C2=N[C@@H]3c4csc(n4)[C@H]4NC(=O)c5csc(n5)[C@H]([C@](C)(O)[C@@H](C)O)NC(=O)C5CSC(=N5)/C(=C/C)NC(=O)C([C@@H](C)O)NC(=O)c5csc(n5)[C@]3(CC2)NC(=O)[C@H](C)NC(=O)C(=C)NC(=O)[C@H](C)NC(=O)C([C@@H](C)CC)NC2C=Cc3c(C(C)O)cc(nc3[C@H]2O)C(=O)OC4C)n1)C(N)=O (some centres not stated) | > 50 µM (inactive)
Cc1ccc(Cl)cc1NC(=O)c1cc(-c2ccccn2)n[nH]1 | 24.5 µM
O=C(Nc1ccccc1)C1CCCN(C(=O)c2cc3ccccc3[nH]2)C1 (configuration not stated) | 43.2 µM
Cc1ccc(-n2c(-c3ccccc3)cn3c4c(=O)[nH]c(=O)n(C)c4nc23)cc1Cl | > 50 µM (inactive)
O=C(Nc1cccc(Cl)c1)N1CCC(c2cc(-c3ccco3)n[nH]2)CC1 | > 50 µM (inactive)
CC1CCN(Cc2nnc(-c3cn(CC(=O)NC4CCCCC4)c4ccccc34)o2)CC1 | > 50 µM (inactive)
Cc1ccc(CNC(=O)CCCn2c(=O)c3sccc3n(CC(=O)Nc3cc(Cl)ccc3C)c2=O)cc1 | 9.57 µM
Cc1ccc(-n2c(-c3ccccc3)cn3c4c(=O)[nH]c(=O)n(C)c4nc23)cc1C | 2 µM
c1cncc(-c2nc(Nc3ccc4c(c3)OCCO4)c3ccccc3n2)c1 | > 50 µM (inactive)
Cc1cc(NC(=O)Cn2c(=O)n(CCCCC(=O)NCc3ccco3)c(=O)c3ccccc32)ccc1Br | 3.48 µM
CN(C)Cc1ccc(C(=O)Nc2ccc(-c3nccs3)cc2)cc1 | > 50 µM (inactive)
CC(C)(C)c1cc(CCC(=O)Nc2c3c(nc4c2CCC4)CCCC3)cc(C(C)(C)C)c1O | > 50 µM (inactive)
O=c1sc2ccccc2c(=O)n1Cc1cccc(C(F)(F)F)c1 | > 50 µM (inactive)
CN1C(=O)c2cc(NC(=O)c3ccccc3Cl)ccc2Oc2ccccc21 | > 50 µM (inactive)
O=c1c(S(=O)(=O)c2cc(F)cc(F)c2)c[nH]c2cc(Cl)ccc12 | 40.1 µM
N#Cc1ccc(NC(=O)Nc2cccn(Cc3c(F)cccc3Cl)c2=O)cc1 | > 50 µM (inactive)
Cc1ccc(Cn2c(=O)n(CCC(=O)NCCc3ccccc3)c(=O)c3ccccc32)cc1 | 18.6 µM
O=c1[nH]c2ccc(S(=O)(=O)Nc3ccc(O)c4ccccc34)cc2[nH]1 | > 50 µM (inactive)
CC1OC1C(=O)[C@]1(O)[C@H](C)[C@@H](O)[C@@]23O[C@@]2([C@H](O)c2c(O)cccc2C3=O)[C@H]1O (some centres not stated) | > 50 µM (inactive)
Cc1cnnn1-c1ccc(C(=O)Nc2cc(Cl)ccc2Cl)cc1 | > 50 µM (inactive)
